Literature values in US10004757B1, “Oral supplement” (Nutri Vida, LLC, priority 2017, dated 2018).

Settings: taken over the daily recommended amount

O=C(O)c1cccnc1 [Niacin, nicotinic acid]
decrease in triglycerides: 30%
